One may read the IC50 as the point on the concentration scale where inhibition reaches its midpoint. Broadly, the Kd is the equilibrium constant for the complex coming apart. In general, ED50 refers to the dose at which the effect has come halfway, by size or by number of responders. One may read the fraction unbound as free concentration divided by total concentration. Read a low fraction unbound as extensive binding.

SMILES strings stand for the structures. Read-outs that look alike come from different tables or passages of the source.

Holding throughout (type): in vivo, rhesus monkeys
In data set [1] the target is T1, LPA1 (Macaca mulatta, UniProt H9EN64).
T1 construct: from tissue; host or cells: lung of living anaesthetised rhesus monkeys (in vivo PET)
T1 sequence (H9EN64 1-364): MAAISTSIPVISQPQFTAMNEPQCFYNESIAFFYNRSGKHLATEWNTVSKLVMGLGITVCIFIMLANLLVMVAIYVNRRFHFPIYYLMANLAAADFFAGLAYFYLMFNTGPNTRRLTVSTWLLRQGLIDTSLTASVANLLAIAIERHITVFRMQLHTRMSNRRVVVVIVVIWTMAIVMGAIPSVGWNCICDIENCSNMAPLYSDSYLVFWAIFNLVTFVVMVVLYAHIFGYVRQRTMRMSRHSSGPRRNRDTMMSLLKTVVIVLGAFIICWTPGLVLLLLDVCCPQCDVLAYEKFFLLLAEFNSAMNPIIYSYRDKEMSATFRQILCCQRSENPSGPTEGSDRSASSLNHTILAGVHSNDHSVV
Briefly: PET saturation study of [11C]-BMT-136088 in lung (bolus plus infusion, VT by MA1/EA). The following applies: for ED50: rhesus monkey. Here is the method:
(§1) This study was divided in two parts: First, the test-retest variability of [^11C]-BMT-136088 binding in a within-day protocol. Second, a saturation study was performed to evaluate the fraction of specific and non-specific binding for the radiotracer [^11C]-BMT-136088, the in vivo equilibrium dissociation constant KD, and the radiopharmaceutical tracer-dose limit (to achieve less than 5% self-occupancy).
In the saturation study, each animal was scanned twice a day, with varying mass of [^11C]-BMT-136088, from tracer dose to near-saturating doses. The interval between the two scans was the same as in the blocking study and test-retest study. For the first scans, tracer doses were used in 3 out of 4 study days. On the fourth day, the first scan dose was not performed at tracer dose, but the mass of the first dose scan was substantially lower than the second dose to minimize the influence of the first injection on the second scan data.
(§2) Two rhesus monkeys were included in the blocking, test-retest, and saturation studies: one male, one female; age=4.8±0.8 y; weight=8.6±0.4 kg. Studies in the same animal were separated by at least 2 weeks to allow the animal to recover from anesthesia and other effects. Four rhesus monkeys (2M, 2F) were included in the dosimetry study.
(§3) Following a low-dose, CT scan used for attenuation correction and to delineate the lung regions of interest, [^11C]-BMT-136088 was injected using a computer-control pump with a bolus plus infusion protocol, with an initial 1-min bolus and a ˜119-min infusion. The volume injected during the initial bolus represented 100 min (Kbol) worth of infusion in the blocking and test-retest study, and 300 min worth of infusion in the saturation study.
(§4) Beginning at the start of each injection, a 120-minute time-of-flight list-mode acquisition on the mCT PET/CT scanner (Siemens Medical Solutions USA, Inc.) was performed. Dynamic PET scan data were reconstructed with corrections for point-spread function, attenuation, normalization, scatter, randoms, and dead time using a 3D OP-OSEM TOF algorithm. PET images were reconstructed into 33 frames, with the following frame timing: 6×30 sec; 3×1 min; 2×2 min; 22×5 min. Each frame contained 400×400×111 (x,y,z) voxels (2.04×2.04×2.0 mm).
The lungs were semi-automatically delineated using CT images collected before each PET scan. • First, the lungs were segmented based on the CT image values in Hounsfield scale (−1000<HU<−200), using a region growing algorithm and seeds manually placed at the center of the lungs; • The trachea, and occasionally the air in the stomach were manually excluded from the segmentation results; • The segmented lung ROIs were divided into right and left ROIs by manually selecting a plane separating the left and right side of the animal (animals were lying in supine position, but this plane was not always perfectly vertical); • The right and left ROIs were further divided into three smaller ROIs: lower lung, mid lung, and upper lung. The upper lung was defined as the part of the lung above the heart; the lower lung was defined as the part of the lung that is less than 5 slices (˜1 cm) above the topmost axial slice where the top of the liver can be seen.
The lung time-activity curves (TACs) were computed for each ROI and expressed in kBq/cm^3. The lung ROI contains lung tissue, blood, and air. In particular, the lung density may change from scan to scan due to (slight) changes in animal positioning, which can change the left-right location of the heart and change which lung tends to be compressed by the heart. Therefore an estimate of the density of lung ROIs was estimated to convert the TAC units from kBq/cm^3 to kBq/g, as follows. The CT images were converted from Hounsfield scale to linear attenuation values (in cm^−1) for 511 KeV photons. These attenuation values were assumed to be linearly proportional to mass for soft tissue (e.g., lung and heart) and the heart density was assumed to be 1 g/cm^3. […]

The target of data set [2] is T1, LPA1. In words: PET blocking study of [11C]-BMT-136088 with BMS-986020. Conditions: from BPND 1.1±0.1. Here is the method:
For the blocking data reanalyzed here, each animal was scanned twice during the administration of [^11C]-BMT-136088, using a bolus plus infusion (B+I) protocol: at baseline first, then during the administration of the blocking drug, BMS-986020, also using a bolus plus infusion protocol.
In the blocking study, BMS-986020 was administered i.v. using a 10-min bolus ([…]) followed by a ˜230 min infusion (0.25 mg/kg/hr) for a total dose of 1.224±0.015 mg/kg.
as §2, §3, §4
Blood samples for PK for each blockade study session were obtained at −1, 60, 90, 120, 150, 210, 240 and 270 minutes after the start of BMS-986020 bolus plus infusion. Red cells were precipitated at 3200 rpm for 10 minutes at 10° C.; the plasma was divided into two aliquots and frozen at −80° C. until shipped for analysis. […]

The target in data set [3] is T1, LPA1. Briefly: PET test-retest study of [11C]-BMT-136088 binding. As for the experimental part:
as §1
In the test-retest study, each animal was scanned twice per day, with the same interval between the two scans as in the blocking study, to measure the variability of [^11C]-BMT-136088 binding parameter and assess if there was a systematic difference in binding parameters between the two scan times (for example due to the prolonged anesthesia). The study was performed in the same animals as the blocking study.
as §2, §3
Beginning at the start of each injection, a 120-minute time-of-flight list-mode acquisition on the mCT PET/CT scanner (Siemens Medical Solutions USA, Inc.) was performed. Dynamic PET scan data were reconstructed with corrections for point-spread function, attenuation, normalization, scatter, randoms, and dead time using a 3D OP-OSEM TOF algorithm. PET images were reconstructed into 33 frames, with the following frame timing: 6×30 sec; 3×1 min; 2×2 min; 22×5 min. Each frame contained 400×400×111 (x,y,z) voxels (2.04×2.04×2.0 mm). […]

Data set [4] can be described thus: Plasma concentration and plasma free fraction in saturation study. Here is the method: as §2
Blood samples were also collected for the last three saturation studies at −5, 60, 90 and 120 minutes after the start of [^11C]-BMT-136088 bolus plus infusion with non-tracer doses (n=4). Red cells were precipitated at 3200 rpm for 10 minutes at 10° C.; the plasma was divided into two aliquots and frozen at −80° C. until shipped for analysis. The goal of these measurements was to compare the plasma concentrations estimated from measurements of [^11C]-BMT-136088 and its metabolism using gamma counters and HPLC systems, to that from measurement of unlabeled BMT-136088 using mass spectrometry.

With `Cc1noc(-c2ccc(-c3ccc(C4(C(=O)O)CC4)cc3)cc2)c1NC(=O)O[C@H](C)c1cccc([11CH3])c1` [[^11C]-BMT-136088, [11C]-(R)-1-(4′-(3-Methyl-4-(((1-(m-tolyl)ethoxy)carbonyl)amino)isoxazol-5-yl)-[1,1′-biphenyl]-4-yl)cyclopropanecarboxylic acid], on LPA1 [1] (MA1 and all corrections, VT versus plasma concentration), the IC50 is 28 ± 12 nM. In addition, the “binding potential BPND” value at LPA1 [1] (MA1 with all corrections, lung) is recorded as 1.1±0.1. In addition, at LPA1 [1] (at equilibrium), the “fraction of tracer in lung (excluding blood) specifically bound to LPA1 sites” value was “about 50%”. In addition, at LPA1 [1] (from plasma IC50 and plasma free fraction, read-out: in vivo KD), the Kd stood at 0.055 nM. Also, the ED50 on LPA1 [1] (MA1 with all corrections, read-out: ED50) is 0.036 ± 0.015 mg/kg; on LPA1 [1] (all ED50 estimates, range over analysis methods, read-out: ED50 estimates (all methods)), 0.036 to 0.056 mg/kg. Besides, the tracer dose limit on LPA1 [1] (to occupy less than 5% of LPA1 sites, based on ED50) was 0.0019 mg/kg. Further, the “maximum expected blockade effect” value on LPA1 [2] is recorded as 52%. The test-retest variability at LPA1 [3] (EA, density and blood activity corrections, left ROIs mid and upper lung) is −2±10%; on LPA1 [3] (EA, density and blood activity corrections, right ROIs mid and upper lung), −1±11%; at LPA1 [3] (MA1, animal A2, left ROIs mid and upper lung), −5%; on LPA1 [3] (MA1, animal A2, right ROIs mid and upper lung), −8%. Further, in data set [4] (both sexes, rhesus monkey, plasma, intravenous, measured during the saturation studies), the fraction unbound was determined as 0.002. For the same molecule, the “slope of plasma concentration vs injected mass” value in data set [4] (saturation study, linear increase) is 0.92 nM/(μg/kg).
